{
  "source": "the NIST ThermoML archive (doi:10.1016/j.tca.2018.07.003)",
  "key": {"[1]": {"conditions": "295 K; 77 kPa; Liquid; transient hot wire"}, "[2]": {"assay": "wn = mass fraction of the nth substance listed", "conditions": "295 K, 77 kPa, Liquid, transient hot wire"}, "[3]": {"assay": "heat capacity at constant pressure per volume; wn = mass fraction of the nth substance listed", "conditions": "295 K, 77 kPa, Liquid, From thermal conductivity and thermal effusivity measured separately"}},
  "note": "± gives the expanded uncertainty stated by the source.",
  "data": [
    {"smiles": "OCCO", "note": "[1,2-ethanediol]", "values": [
      {"measurement": "thermal conductivity", "setting": "[1]", "value": "0.254 ± 0.01", "unit": "W/m/K"}
    ]},
    {"smiles": "CC(C)CC(C)(C)C", "note": "[2,2,4-trimethylpentane]", "values": [
      {"measurement": "thermal conductivity", "setting": "[1]", "value": "0.096 ± 0.004", "unit": "W/m/K"}
    ]},
    {"smiles": "CC(C)CC(C)(C)C", "note": "[2,2,4-trimethylpentane] + CCCCCCC", "values": [
      {"measurement": "thermal conductivity", "setting": "[2]; w1 = 0.2", "value": "0.116 ± 0.004", "unit": "W/m/K"},
      {"measurement": "thermal conductivity", "setting": "[2]; w1 = 0.4", "value": "0.113 ± 0.004", "unit": "W/m/K"},
      {"measurement": "thermal conductivity", "setting": "[2]; w1 = 0.6", "value": "0.107 ± 0.004", "unit": "W/m/K"},
      {"measurement": "thermal conductivity", "setting": "[2]; w1 = 0.8", "value": "0.104 ± 0.004", "unit": "W/m/K"},
      {"measurement": "thermal conductivity", "setting": "[2]; w1 = 1", "value": "0.096 ± 0.004", "unit": "W/m/K"},
      {"measurement": "heat capacity", "setting": "[3]; w1 = 0.2", "value": "1390000 ± 90000", "unit": "J/K/m3"},
      {"measurement": "heat capacity", "setting": "[3]; w1 = 0.4", "value": "1310000 ± 90000", "unit": "J/K/m3"},
      {"measurement": "heat capacity", "setting": "[3]; w1 = 0.6", "value": "1310000 ± 80000", "unit": "J/K/m3"},
      {"measurement": "heat capacity", "setting": "[3]; w1 = 0.8", "value": "1290000 ± 80000", "unit": "J/K/m3"},
      {"measurement": "heat capacity", "setting": "[3]; w1 = 1", "value": "1340000 ± 90000", "unit": "J/K/m3"}
    ]},
    {"smiles": "OCC(O)CO", "note": "[glycerol]", "values": [
      {"measurement": "thermal conductivity", "setting": "[1]", "value": "0.289 ± 0.01", "unit": "W/m/K"}
    ]},
    {"smiles": "CCCCCCC", "note": "[heptane]", "values": [
      {"measurement": "thermal conductivity", "setting": "[1]", "value": "0.119 ± 0.004", "unit": "W/m/K"}
    ]},
    {"smiles": "CCCCCCC", "note": "[heptane] + CC(C)CC(C)(C)C", "values": [
      {"measurement": "thermal conductivity", "setting": "[2]; w2 = 0", "value": "0.119 ± 0.004", "unit": "W/m/K"},
      {"measurement": "heat capacity", "setting": "[3]; w2 = 0", "value": "1480000 ± 100000", "unit": "J/K/m3"}
    ]},
    {"smiles": "CO", "note": "[methanol]", "values": [
      {"measurement": "thermal conductivity", "setting": "[1]", "value": "0.208 ± 0.008", "unit": "W/m/K"}
    ]},
    {"smiles": "O", "note": "[water]", "values": [
      {"measurement": "thermal conductivity", "setting": "[1]", "value": "0.6 ± 0.02", "unit": "W/m/K"}
    ]}
  ]
}
